Source: patent publication US12691145B2, “Plasma-treated hydrogel compositions and uses thereof” (UNIVERSITAT POLITÉCNICA DE CATALUNYA, priority 2020, dated 2026)

Assay: Detection of RONS in plasma-treated polymer solutions (strips, AR/HRP reagent, Griess reagent)
Assay type: physicochemical
Conditions: 200 μL
Excerpt: In the examples presented here, two kinds of atmospheric plasma jet were used: a commercially available cold atmospheric plasma jet kINPen IND (NEOPLAS Tools, Germany), operating with argon and an atmospheric pressure plasma jet (APPJ) using He as plasma gas in a jet design based on a single electrode. Gas flow was regulated between 1 and 2.5 L/min for kINPen and between 1 and 5 L/min for APPJ by using Ar and He Bronkhorst Mass View flow controllers (BRONKHORST, Netherlands), respectively. All plasma treatments of polymeric solutions for RONS quantification were performed on 200 μL of the polymeric solution in 96-well plates, with a distance between the nozzle and the sample surface between 10 and 20 mm. These plasma treatments were done with ungrounded samples. Both grounded and ungrounded samples can be used to obtain the compositions of the present invention, since the skilled person can set the plasma treatment conditions to obtain the desired RONS concentrations.
Determination of NO2^− concentration in plasma-treated polymer solutions was performed using Griess reagent. The Griess reagent used was obtained by dissolving 1% wt/v of sulphanilamide, 0.1% wt/v of N-(1-naphthyl)ethylenediamine dihydrochloride (NEED) and 5% w/v of phosphoric acid in de-ionized water. 200 μL of Griess reagent were added on 200 μL of sample in 96 well-plates. The plates were incubated for 10 min at room temperature protected from the light. The absorbance was measured at λabs=540 nm using a Synergy HTX Hybrid Multi Mode Microplate Reader (BioTek Instruments, Inc., USA). The [NO2^−] in each sample was determined from the absorbance values by using a calibration curve made from NaNO2 dilutions in the corresponding polymer solutions.
The concentration of hydrogen peroxide was determined by reaction of H2O2 with Amplex Red in presence of HRP enzyme that leads to the creation of resorufin, a fluorescent product. Amplex Red/HRP reagent consists in 100 μM of Amplex Red and 0.25 U/mL HRP in DI water. Since the higher concentration of H2O2 able to be processed properly by this reagent is around 10 μM of H2O2, plasma-treated polymer solutions were diluted 200 times previously to the addition of the reagent. In this case, for hydrogen peroxide detection, 50 μL of the Amplex Red/HRP reagent was added to 200 μL of the 200×-diluted polymer solution sample in a 96-well plate and incubated for 30 min at 37° C. Subsequent fluorescence measurements were performed by means of a Synergy HTX Hybrid Multi Mode Microplate Reader (BioTek Instruments, Inc., USA), with fluorescence filters centred at λex=560/20 nm and λem=590/20 nm as excitation and emission wavelengths, respectively. Concentrations of H2O2 in polymer solution generated by plasma treatment were obtained from the fluorescence values using a calibration curve made from 30% hydrogen peroxide solution in the corresponding polymer solutions.
For certain polymer solutions, interferences may be found between the solution and the reactants, invalidating the measure. In such cases, another method was used to determine the concentration of H2O2, […] in the polymer solutions after plasma treatment: QUANTOFIX® test strips, which were analyzed by means of a reflexion photometer (QUANTOFIX® Relax, of Macherey Nagel). The strips consist of plastic strips to which test paper has been sealed. Nitrite strips are also based in Griess reagent. Peroxide strips also use a redox reaction. The range of detection of the test strips used for H2O2, NO3^− and NO2^− were 1-100 mg/L, 10-500 mg/L and 1-80 mg/L, respectively. The plasma-treated polymer solutions were diluted, if necessary, to be within the measuring range.

H2O2 (APPJ, treat. time 180 s): 9.2 mg/L
NO2^− (APPJ, treat. time 180 s): 1.7 mg/L
H2O2 (APPJ, treat. time 300 s): 16.4 mg/L
NO2^− (APPJ, treat. time 300 s): 2.7 mg/L
H2O2 (kINPen, treat. time 180 s): 10.3 mg/L
NO2^− (kINPen, treat. time 180 s): 2.6 mg/L
H2O2 (kINPen, treat. time 300 s): 29.3 mg/L
NO2^− (kINPen, treat. time 300 s): 2.7 mg/L
Substance: Water
